Source: patent US12264146B2, “Rho kinase inhibitor, method for preparing same and uses thereof” (BEIJING INCREASE INNOVATIVE DRUG CO., LTD., priority 2018, dated 2025)
Where a name gives a salt, the structure may show the parent alone.

How the values were obtained:
endothelin (ET-1) = test: Expression of endothelin (ET-1) in EA.Hy926 endothelial cells, detection kit; format: cell-based, human; conditions: 48 h; for expression of endothelin in endothelial cells: Detection result of test compound at low dose (0.4 μM) / expression of endothelin in endothelial cells: Detection result of test compound at medium dose (2 μM) / expression of endothelin in endothelial cells: Detection result of test compound at high dose (10 μM): EA.Hy926 cell supernatant
Method: (§1) Commercially available cytokine kits were used to detect the effects of the compounds of the present application on vascular endothelium-derived contracting factor endothelin, vascular endothelium-derived relaxing factor endothelial nitric oxide synthase, nitric oxide, and prostacyclin factor. The detection was performed according to the kit instructions. When testing the effect of the compound of the present application on cytokines, a normal control group, a fasudil hydrochloride group, and high-, medium- and low-dose groups of the compounds of the present application were set up for testing. The fasudil hydrochloride used in this test example was purchased from Beijing Sihuan Pharmaceutical Co., Ltd., with the SFDA approval number of H20173349. The EA.Hy926 cells used in this test example were purchased from Suzhou Beina Chuanglian Biotechnology Co., Ltd.
EA.Hy926 cells were taken and inoculated in a 96-well plate at 5×10^4 cells/mL, 100 μL per well, and cultured adherently for 24 hours, then the test compound prepared in DMEM medium was added, and an equal volume of DMEM medium was added in the normal control group, then the cells were cultured at 37° C. for 48 hours, and then the cell supernatant was taken and placed in an EP tube, and centrifuged at 3000 r/min, 4° C. for 15 min. The resulting cell supernatant was transferred to a new EP tube, diluted twice with culture medium, and detected according to the instruction of the human endothelin detection kit (purchased from Wuhan Boster Biological Engineering Co., Ltd., batch number 59113731009), and the detection results were shown in Table 2.

nitric oxide (NO) = test: Synthesis and secretion of nitric oxide (NO) in EA.Hy926 endothelial cells, NO detection kit; format: cell-based; conditions: EA.Hy926 cell supernatant, 24 h
Method: as §1
EA.Hy926 cells were inoculated in a 24-well plate at 5×10^5 cells/mL, 400 μL per well, and cultured adherently for 18 hours, then the supernatant was discarded, the test compound prepared in DMEM medium was added, and an equal volume of DMEM medium was added in the normal control group, then the cells was cultured for 24 h in incubator, and then the cell supernatant was collected and detected according to the instructions of NO detection kit (purchased from Beyotime Institute of Biotechnology, Cat. No. 062617171017), and the detection results were shown in Table 5.

prostacyclin (PGI2) = test: Expression of prostacyclin (PGI2) in EA.Hy926 endothelial cells, ELISA kit; format: cell-based; conditions: 24 h; for expression of prostacyclin in endothelial cells: Detection result of test compound at low dose (0.4 μM) / expression of prostacyclin in endothelial cells: Detection result of test compound at medium dose (2 μM) / expression of prostacyclin in endothelial cells: Detection result of test compound at high dose (10 μM): EA.Hy926 cell supernatant
Method: as §1
EA.Hy926 cells were taken and inoculated in a 96-well plate at 5×10^4 cells/mL, 100 μL per well, and cultured adherently for 24 hours, then the test compound prepared in DMEM medium was added, and an equal volume of DMEM medium was added in the normal control group, then the cells were cultured at 37° C. for 24 hours, and then the cell supernatant was taken and placed in an EP tube, and centrifuged for 15 min at 3000 r/min and 15° C. The resulting supernatant was transferred to a new EP tube, and then the detection was performed according to the instruction of ELISA kit (purchased from Wuhan Elabscience Biotechnology Co., Ltd., Cat. No. E-EL-0022c), and the detection results were shown in Table 3.

[1] = tested on: subarachnoid hemorrhage in rats; test: Rat subarachnoid hemorrhage (SAH) model by intravascular puncture, Sugawara bleeding score; format: in vivo; design: dose or concentration left out as unconfirmed; conditions: tail vein injection, 2 administrations 4 h apart, scored 24 h after first administration (Sugawara)

Structure (SMILES)	expression of endothelin in endothelial cells: Detection result of test compound at low dose (0.4 μM) (endothelin (ET-1)) [pg/mL]	expression of endothelin in endothelial cells: Detection result of test compound at medium dose (2 μM) (endothelin (ET-1)) [pg/mL]	expression of endothelin in endothelial cells: Detection result of test compound at high dose (10 μM) (endothelin (ET-1)) [pg/mL]	nitric oxide secretion in endothelial cells: Detection result of test compound at low dose (0.4 μM) (nitric oxide (NO)) [μm]	nitric oxide secretion in endothelial cells: Detection result of test compound at medium dose (2 μM) (nitric oxide (NO)) [μm]	nitric oxide secretion in endothelial cells: Detection result of test compound at high dose (10 μM) (nitric oxide (NO)) [μm]	expression of prostacyclin in endothelial cells: Detection result of test compound at low dose (0.4 μM) (prostacyclin (PGI2)) [pg/mL]	expression of prostacyclin in endothelial cells: Detection result of test compound at medium dose (2 μM) (prostacyclin (PGI2)) [pg/mL]	expression of prostacyclin in endothelial cells: Detection result of test compound at high dose (10 μM) (prostacyclin (PGI2)) [pg/mL]	Cerebral hemorrhage volume score (x ± s) [1]	effect on the expression and secretion of endothelin (in words) (endothelin (ET-1); high, medium and low doses)	effect on the expression of prostacyclin (in words) (prostacyclin (PGI2); low concentration)	effect on the expression of prostacyclin (in words) (prostacyclin (PGI2); medium and high concentrations)
CCCC[C@@H]1CNCCCN1S(=O)(=O)c1cccc2c(O)nccc12 [Compound R-YK1611, (R)-5-((2-butyl-1,4-diazacycloheptan-1-yl)sulfonyl)isoquinolin-1-ol]	238.20 ± 2.28	249.34 ± 7.96	235.68 ± 3.34	1.095 ± 0.095	1.109 ± 0.087	1.125 ± 0.016	232.61 ± 9.70	229.98 ± 11.41	249.23 ± 0.75	12.41 ± 2.03			
COc1nccc2c(S(=O)(=O)N3CCCNC[C@H]3CCC(C)C)cccc12 [Compound R-YK1612, (R)-5-((2-isopentyl-1,4-diazacycloheptan-1-yl)sulfonyl)-1-methoxyisoquinoline]	232.61 ± 9.70	229.98 ± 11.41	249.23 ± 0.75	0.960 ± 0.134	1.021 ± 0.006	1.114 ± 0.006	269.40 ± 8.89	269.35 ± 8.69	257.44 ± 4.48	13.05 ± 1.96			
O=S(=O)(c1cccc2cnccc12)N1CCCNCC1 [Fasudil hydrochloride, reference compound]	254.29 ± 3.35	252.58 ± 3.92	325.69 ± 9.78	1.131 ± 0.045	1.356 ± 0.045	1.450 ± 0.000	259.07 ± 40.07	208.85 ± 37.07	184.93 ± 1.09	10.25 ± 3.24	significantly promote the expression and secretion of endothelin	promoted the expression of prostacyclin	inhibited the expression
